Data published in patent US20140047572A1, “THROMBOPOIETIN MIMETICS FOR THE TREATMENT OF RADIATION OR CHEMICAL INDUCED BONE MARROW INJURY” (priority 2012, published 2014).

How the values were obtained:
[1] = tested on: human c-mpl TM (exon 10) KI mice; experiment: Survival of irradiated human c-mpl TM (exon 10) KI mice; type: in vivo, mouse; settings: 7.75 Gy TBI; for survival after TBI: male mice, 12.5, 25 or 50 mg/kg daily gavage 15 days from 24 h after irradiation, vs vehicle
Procedure: Male Mpl^hExon10KI (human c-mpl TM knock-in mice) received 7.75 Gy TBI. Twenty-four hours after irradiation, mice were gavaged with either vehicle (0 mg/kg of eltrombopag) or one of the three doses of eltrombopag (12.5 mg/kg, 25 m g/kg, vs. 50 mg/kg daily for 15 days (n=8-10) for each experimental group.
A pilot radiation study of was performed using human c-mpl TM KI mice before completion of backcrossing to >95% C57B1. Male human c-mpl TM (exon 10) KI mice received 7.75 Gy TBI. Twenty-four hours after irradiation, mice were gavaged with either vehicle (0 mg/kg of eltrombopag) or one of the three doses of eltrombopag (12.5 mg/kg, 25 m g/kg, vs. 50 mg/kg daily for 15 days (n=8-10) for each experimental group.

[2] = tested on: TM KI homozygote mutant mice; experiment: Blood cell recovery in irradiated human c-Mpl TM (exon 10) KI mice; type: in vivo, mouse; settings: 6.5 Gy TBI, 25 mg/kg/day oral gavage from 24 h post IR, vs vehicle
Procedure: TM KI homozygote mutant mice (11 weeks old, male and female) were treated with 6.5 Gy TBI and at 24 hr post IR fed with 25 mg ePag/kg/day or vehicle by oral gavage daily for 28 days or till sacrificed. Mice were sacrificed on the day specified. Whole blood was obtained by heart puncture and CBC was done by Heska HemaTrue Hematology analyzer. Whole blood was also stained by anti CD41 and anti CD61 antibodies. BM was extracted and stained with mCD41 and mCD42d for flow cytometry analysis of […] cells (markers for precursor and progenitors for thrombopoiesis).
The ratio of platelets to RBCs was measured by flow cytometry after whole blood was stained with anti-CD41 and anti-CD61 antibodies. The count of platelets was calculated by multiplying the ratio with the count of RBCs obtained by Heska HemaTrue Hematology Analyzer. Week 0 is normal mice without IR and gavage.

[3] = tested on: Human bone marrow mononuclear cells; experiment: Megakaryocyte and CD41+CD34- cell differentiation in ex vivo human bone marrow culture in 3D bioreactor; type: cell-based; settings: eltrombopag 8 μg/mL + IL11 vs TPO + IL11; non-irradiated control and irradiated cultures; 14 days
Procedure: FIGS. 12A-D illustrate the effects of IL-11 only (middle/red bars) versus TPO+IL11 (left/blue bars) versus eltrombopag (8 μg/mL)+IL11 (right/green bars) on promoting megakaryocyte or CD41+CD34− cell differentiation in control and irradiated ex vivo human 3D bone marrow mononuclear cells. Cells were treated with TPO and IL11 (5 ng/mL each) for 6-7 days to induce megakaryocyte differentiation. Culture media was replaced with cultures containing IL-11 only, TPO+IL11, or eltrombopag+IL11 for the groups of control cultures (FIGS. 12A, 12C) and the group of irradiated cultures (FIGS. 12B, 12D). […]
Human bone marrow mononuclear cells were inoculated into the 6-well bioreactor as described above (3.5×10^6 cells in 0.6 mL). […] Cultures were screened weekly for cell viability (Trypan blue exclusion test) and for megakaryocytes production expressed as number of megakaryocytes per 1000 bone marrow cells on Wright stained cytospin slides.
Flow cytometry analysis of CD41+CD34− cells (marker for precursor/progenitor of thrombopoiesis) was also performed for megakaryocytes and progenitors as an additional experimental end-point. […] Cells were analyzed on FACS—Calibur Flow Cytometer (Becton-Dickinson, Rockville, Md.). CD41+CD34− cell population was gated as a subpopulation of all living cells analyzed. […]

TPO receptors = settings: depends on His 499 in the transmembrane portion; cited from earlier work
Mpl^hExon10 KI mice = experiment: Eltrombopag treatment of non-irradiated Mpl^hExon10 KI mice: platelet and bone marrow cell populations; type: in vivo, mouse; settings: 25 mg/kg/day gavage 15 days, vs vehicle
Procedure: Mpl^hExon10 KI mice (9 to 13 weeks old, male and female) were fed with 25 mg eltrombopag (ePag)/kg/day or vehicle by gavage for 15 days. Eltrombopag is a non-peptide mimetic of the TPO receptor. Mice were sacrificed on the 16th day for cell analysis.
To examine platelet levels, whole blood was obtained by heart puncture and CBC was done by Heska HemaTrue Hematology analyzer. Whole blood was also stained by anti CD41 and anti CD61 antibodies. The ratio of platelets to RBCs was measured by flow cytometry after whole blood was stained with anti-CD41 and anti-CD61 antibodies. The count of platelets was calculated by multiplying the ratio with the count of RBCs obtained by Heska HemaTrue Hematology Analyzer. The data is presented as mean±standard error of the mean.
To examine bone marrow cell populations, mice were sacrificed on day 16 and bone marrow cells were flushed out of the femur and tibia. RBCs were lysed by ACK buffer. The bone marrow mononuclear cells were stained with anti-CD41-PE and anti-CD42-APC. DAPI was added before flow cytometric analysis to gate away dead cells. The number of mice in each genotype is 5-7. All results are shown as the mean±standard error of the mean.
In a separate experiment, bone marrow mononuclear cells were stained with anti-lineages-PE (Gr-1, Mac-1, B220, Ter119, CD4 and CD8), anti-Sca-1 FITC, and anti-c-kit-APC. DAPI-pacific blue was added before flow cytometric analysis to eliminate dead cells. To analyze KSL (linage^−, c-kit^+, sca^+) population, live cells (DAPI-) are first gated, followed by gating the linage^− population and selecting c-kit^+/sca-1^+ population within the linage^− population.

Mpl^hmMPL knock-in mice = experiment: Survival of Mpl^hmMPL knock-in mice after lethal total body irradiation; type: in vivo, mouse; settings: 8 Gy TBI, eltrombopag 50 mg/kg gavage daily for 15 days from 24 h after TBI, monitored 30 days
Procedure: FIG. 3 is a Kaplan-Meier survival curve showing survival of wildtype and Mpl^hmMPL knock-in mice after exposure to a non-therapeutic dose of radiation. Male Mpl^hmMPL knock-in mice received total body irradiation (TBI) of 8 Gy. Twenty-four hours after TBI, mice were gavaged daily with eltrombopag (50 mg/kg) for 15 days. Survival of mice was monitored twice daily for 30 days. Experiments were carried out with 8 homozygous Mpl^hmMPL knock-in mice, 10 heterozygous Mpl^hmMPL knock-in mice, and 10 wild type mice.
All mice received 8 Gy total body irradiation and were treated with eltrombopag 24 hours after irradiation. […] It is believed that eltrombopag facilitates bone marrow recovery after radiation injury to the hematopoietic system.

CC1=NN(c2ccc(C)c(C)c2)C(=O)/C1=N\Nc1cccc(-c2cccc(C(=O)O)c2)c1O [eltrombopag, (Z)-3′-(2-(1-(3,4-dimethylphenyl)-3-methyl-5-oxo-1H-pyrazol-4(5H)-ylidene)hydrazinyl)-2′-hydroxybiphenyl-3-carboxylic acid]
survival after TBI, dose dependence ([1]; 25 and 50 mg/kg vs 12.5 mg/kg daily for 15 days): higher doses (25 mg/kg and 50 mg/kg) yielded better survival
survival after TBI [1]: improves survival
survival after TBI ([1]; listed as Eltrombopag): improved the survival of mice
red blood cell counts ([2]; 2 weeks post IR): an improvement
platelet counts ([2]; 4 and 6 weeks post IR): significant improvement
count of bone marrow precursor/progenitor cells for thrombopoiesis ([2]; 4 weeks post IR): significant improvement
white blood cell counts ([2]; 6 weeks post IR): significant improvement
CD41+CD34- cells (precursors/progenitors for thrombopoiesis) [3]: performed as well as TPO
megakaryocytes (number per 1000 bone marrow cells) [3]: performed as well as TPO in promoting megakaryocytes
species-specificity of TPO receptor binding (TPO receptors): binds to the TPO receptors of only humans and chimpanzees
bone marrow Lin-KSL (stem) cells (Mpl^hExon10 KI mice; Mpl^hExon10 KI mice): significantly increased
bone marrow CD41+CD42+ cells (Mpl^hExon10 KI mice; homozygous Mpl^hExon10 KI mice, day 16): significantly increased
platelet counts in the peripheral blood (Mpl^hExon10 KI mice; homozygous Mpl^hExon10 KI mice, day 16, 25 mg/kg/day): significantly increased the platelet counts
survival after lethal total body irradiation, heterozygous Mpl^hmMPL knock-in mice (Mpl^hmMPL knock-in mice; heterozygous vs wild type): survived longer than the wild type
survival after lethal total body irradiation, homozygous Mpl^hmMPL knock-in mice (Mpl^hmMPL knock-in mice; homozygous vs heterozygous): survived longer than the heterozygous transgenic mice
